From US5391540A, “Substituted pyridine compounds” (Rohm and Haas Company, priority 1993, dated 1995)

Legend:
Test in all cases: Pre-emergent herbicidal activity (Table A)
Format in all cases: in vivo
Barnyardgrass = conditions: Echinochloa crus-galli, pre-emergence, Bygr, 11.2 kg/ha, 10-14 days, read-out: herbicidal rating (% inhibition)
Protocol: (§1) The herbicidal ratings used in Tables A and B were assigned according to a scale based on the percent inhibition of each plant species. The herbicide rating symbols in Tables A and B are defined as follows: […]
(§2) One set of pre-emergent tests was conducted as follows:
(§3) Topsoil was placed in a pan and compacted to a depth of 0.95 to 1.27 cm. from the top of the pan. A predetermined number of seeds of each of several monocotyledonous and dicotyledonous annual plant species and/or vegetative propagules of various perennial plant species were placed on top of the soil. The soil required to level fill a pan after seeding or adding vegetative propagules was weighed into another pan. A known amount of the test compound dissolved or suspended in an organic solvent or water and applied in acetone or water as a carrier was thoroughly mixed with this cover soil, and the herbicide/soil mixture was used as a cover layer for the previously prepared pan.
(§4) The plant species usually regarded as weeds which were utilized in one set of pre-emergent activity tests, the data for which are shown in Table A, are identified by letter headings printed diagonally above the columns according to the following legend: […]

Canada thistle = conditions: Cirsium arvense, pre-emergence, Cath, 11.2 kg/ha, 10-14 days, read-out: herbicidal rating (% inhibition)
Protocol: as §1, §2, §3, §4

Cocklebur = conditions: Xanthium strumarium, pre-emergence, Cobu, 11.2 kg/ha, 10-14 days, read-out: herbicidal rating (% inhibition)
Protocol: as §1, §2, §3, §4

Common Lambsquarters = conditions: Chenopodium album, pre-emergence, Colq, 11.2 kg/ha, 10-14 days, read-out: herbicidal rating (% inhibition)
Protocol: as §1, §2, §3, §4

Downy Brome = conditions: Bromus tectorum, pre-emergence, Dobr, 11.2 kg/ha, 10-14 days, read-out: herbicidal rating (% inhibition)
Protocol: as §1, §2, §3, §4

Morningglory = conditions: Ipomoea, pre-emergence, Mogl, 11.2 kg/ha, 10-14 days, read-out: herbicidal rating (% inhibition)
Protocol: as §1, §2, §3, §4

Pennsylvania Smartweed = conditions: pre-emergence, Pesw, 11.2 kg/ha, 10-14 days, read-out: herbicidal rating (% inhibition)
Protocol: as §1, §2, §3, §4

Quackgrass = conditions: pre-emergence, Rhqg, 11.2 kg/ha, 10-14 days, read-out: herbicidal rating (% inhibition)
Protocol: as §1, §2, §3, §4

Rhizome Johnsongrass = conditions: Sorghum halepense, pre-emergence, Rhjg, 11.2 kg/ha, 10-14 days, read-out: herbicidal rating (% inhibition)
Protocol: as §1, §2, §3, §4

Velvetleaf = conditions: Abutilon theophrasti, pre-emergence, Vele, 11.2 kg/ha, 10-14 days, read-out: herbicidal rating (% inhibition)
Protocol: as §1, §2, §3, §4

Yellow Nutsedge = conditions: Cyperus, pre-emergence, Yens, 11.2 kg/ha, 10-14 days, read-out: herbicidal rating (% inhibition)
Protocol: as §1, §2, §3, §4

Row | Compound | inhibition at 11200 g/ha (Barnyardgrass) [%] | inhibition at 11200 g/ha (Canada thistle) [%] | inhibition at 11200 g/ha (Cocklebur) [%] | inhibition at 11200 g/ha (Common Lambsquarters) [%] | inhibition at 11200 g/ha (Downy Brome) [%] | inhibition at 11200 g/ha (Morningglory) [%] | inhibition at 11200 g/ha (Pennsylvania Smartweed) [%] | inhibition at 11200 g/ha (Quackgrass) [%] | inhibition at 11200 g/ha (Rhizome Johnsongrass) [%] | inhibition at 11200 g/ha (Velvetleaf) [%] | inhibition at 11200 g/ha (Yellow Nutsedge) [%]
1 | COC(=O)c1c(C(F)(F)F)[nH]c(=O)c(C#N)c1CC(C)C [Compound 22, 3-pyridinecarboxylic acid, 5-cyano-1,6-dihydro-4-(2-methylpropyl)-6-oxo-2-(trifluoromethyl)-, methyl ester] | 0 to 24 | 0 to 24 | 0 to 24 | 0 to 24 | 0 to 24 | 0 to 24 | 0 to 24 | 0 to 24 | 0 to 24 | 0 to 24 | 0 to 24
2 | C=CCOc1nc(C(F)(F)F)c(C(=O)OC)c(CC(C)C)c1C(=O)OCC [Compound 23, 3,5-pyridinecarboxylic acid, 4-(2-methy1-propyl)-2-(2-propenyloxy)-6-(trifluoromethyl)-, 3-ethyl 5-methyl ester, hydrate (1:0.3)] | 75 to 100 | 0 to 24 | 0 to 24 | 75 to 100 | 75 to 100 | 25 to 49 | 75 to 100 | 25 to 49 | 75 to 100 | 25 to 49 | 0 to 24
3 | COC(=O)c1c(C(F)(F)F)nc(OC)c(C(=O)n2cccn2)c1CC(C)C [Compound 24, 3-pyridinecarboxylic acid, 6-methoxy-4-(2-methylpropyl)-5-(1H-pyrazo1-1-ylcarbonyl)-2-(trifluoromethyl)-, methyl ester, hydrate (1:0.3)] | 75 to 100 | 25 to 49 | 0 to 24 | 75 to 100 | 75 to 100 | 75 to 100 | 75 to 100 | 75 to 100 | 75 to 100 | 75 to 100 | 0 to 24
4 | COC(=O)c1c(C(F)(F)F)nc(OC)c(C(=O)NCCO)c1CC(C)C [Compound 25, 3-pyridinecarboxylic acid, 5-[[(2-hydroxyethyl)amino]carbonyl]-6-methoxy-4-(2-methylpropyl)-2-(trifluoromethyl)-, methyl ester, hydrate (1:0.2)] | 0 to 24 | 0 to 24 | 0 to 24 | 0 to 24 | 0 to 24 | 0 to 24 | 0 to 24 | 0 to 24 | 0 to 24 | 0 to 24 | 0 to 24
5 | CCOC(=O)c1c(OC)nc(C(F)F)c(C(=O)OC)c1CC(C)C [Compound 26, 3,5-pyridinedicarboxylic acid, 2-(difluoromethyl)-6-methoxy-4-(2-methylpropyl)-, 5-ethyl 3-methyl ester] | 75 to 100 | 75 to 100 | 0 to 24 | 75 to 100 | 75 to 100 | 75 to 100 | 75 to 100 | 75 to 100 | 75 to 100 | 75 to 100 | 0 to 24
6 | COC(=O)c1c(C(F)(F)F)nc(OC)c(C2=NCCO2)c1CC(C)C [Compound 27, 3-pyridinecarboxylic acid, 5-(4,5-dihydro-2-oxazolyl)-6-methoxy-4-(2-methylpropyl)-2-(trifluoromethyl)-, methyl ester] | 75 to 100 | 75 to 100 | 25 to 49 | 75 to 100 | 75 to 100 | 75 to 100 | 75 to 100 | 75 to 100 | 0 to 24 | 75 to 100 | 50 to 74
7 | COC(=O)c1c(C(F)(F)F)nc(OC)c(C(=O)n2ccnc2)c1CC(C)C [Compound 28, 3-pyridinecarboxylic acid, 6-methoxy-4-(2-methylpropyl)-5-(1H-imidazo1-1-ylcarbonyl)-2-(trifluoromethyl)-, methyl ester] | 75 to 100 | 0 to 24 | 75 to 100 | 75 to 100 | 75 to 100 | 50 to 74 | 50 to 74 | 0 to 24 | 0 to 24 | 25 to 49 | 0 to 24
8 | CCOC(=O)c1c(OC)nc(C(F)(F)Cl)c(C(=O)OC)c1CC(C)C [Compound 29, 3,5-pyridinedicarboxylic acid, 2-(chlorodifluoromethyl)-6-methoxy-4-(2-methylpropyl)-, 5-ethyl 3-methyl ester] | 75 to 100 | 0 to 24 | 0 to 24 | 75 to 100 | 75 to 100 | 75 to 100 | 75 to 100 | 75 to 100 | 25 to 49 | 75 to 100 | 25 to 49
9 | COC(=O)c1c(OC)nc(C(F)F)c(C(=O)OC)c1CC(C)C [Compound 31, 3,5-pyridinedicarboxylic acid, 2-(difluoromethyl)-6-methoxy-4-(2-methylpropyl)-, dimethyl ester] | 75 to 100 | 0 to 24 | 0 to 24 | 75 to 100 | 75 to 100 | 75 to 100 | 75 to 100 | 75 to 100 | 75 to 100 | 75 to 100 | 50 to 74
10 | COC(=O)c1c(C(F)(F)F)nc(OC)c(C(=O)SC)c1CC(C)C [Compound 33, 3-pyridinecarboxylic acid, 6-methoxy-4-(2-methylpropyl)-5-[(methylthio)carbonyl]-2-(trifluoromethyl)-, methyl ester] | 75 to 100 | 50 to 74 | 25 to 49 | 75 to 100 | 75 to 100 | 75 to 100 | 75 to 100 | 75 to 100 | 75 to 100 | 75 to 100 | 50 to 74
11 | COC(=O)c1c(OC)nc(C(F)(F)F)c(C(=O)SC)c1CC(C)C [Compound 34, 3-pyridinecarboxylic acid, 2-methoxy-4-(2-methylpropyl)-5-[(methylthio)carbonyl]-6-(trifluoromethyl)-, methyl ester] | 75 to 100 | 75 to 100 | 75 to 100 | 75 to 100 | 75 to 100 | 75 to 100 | 75 to 100 | 75 to 100 | 75 to 100 | 50 to 74 | 75 to 100
12 | CCOC(=O)C1=C(C(F)(F)F)NC(=O)C(C(N)=O)C1CC(C)C (centres unmarked) [Compound 35, 3-pyridinecarboxylic acid, 5-(aminocarbonyl)-1,4,5,6-tetrahydro-4-(2-methylpropyl)-6-oxo-2-(trifluoromethyl)-, ethyl ester] | 0 to 24 | 0 to 24 | 0 to 24 | 0 to 24 | 0 to 24 | 0 to 24 | 0 to 24 | 0 to 24 | 0 to 24 | 0 to 24 | 0 to 24
13 | COC(=O)c1c(OC)nc(C(F)(F)F)c(N)c1CC(C)C [Compound 36, 3-pyridinecarboxylic acid, 5-amino-2-methoxy-4-(2-methylpropyl)-6-(trifluoromethyl)-, methyl ester] | 75 to 100 | 25 to 49 | 0 to 24 | 75 to 100 | 75 to 100 | 50 to 74 | 75 to 100 | 75 to 100 | 75 to 100 | 50 to 74 | 0 to 24
